This note sets out measurements from US20240317739A1, “NOVEL UREA DERIVATIVE COMPOUND AS RON INHIBITOR” (LG CHEM, LTD., priority 2021, published 2024).

One assay deals with cMET (Homo sapiens, UniProt P08581). Description: Evaluation of inhibitory activity against MET (TR-FRET). In kind it is biochemical. As to conditions: TR-FRET kinase assay, cMET protein. As to the method: In addition, in order to measure the enzyme activity inhibition for cMET, the evaluation was performed in the same manner as the enzyme activity inhibition measurement experiment for the RON.
Chain of cMET (P08581 25-1390): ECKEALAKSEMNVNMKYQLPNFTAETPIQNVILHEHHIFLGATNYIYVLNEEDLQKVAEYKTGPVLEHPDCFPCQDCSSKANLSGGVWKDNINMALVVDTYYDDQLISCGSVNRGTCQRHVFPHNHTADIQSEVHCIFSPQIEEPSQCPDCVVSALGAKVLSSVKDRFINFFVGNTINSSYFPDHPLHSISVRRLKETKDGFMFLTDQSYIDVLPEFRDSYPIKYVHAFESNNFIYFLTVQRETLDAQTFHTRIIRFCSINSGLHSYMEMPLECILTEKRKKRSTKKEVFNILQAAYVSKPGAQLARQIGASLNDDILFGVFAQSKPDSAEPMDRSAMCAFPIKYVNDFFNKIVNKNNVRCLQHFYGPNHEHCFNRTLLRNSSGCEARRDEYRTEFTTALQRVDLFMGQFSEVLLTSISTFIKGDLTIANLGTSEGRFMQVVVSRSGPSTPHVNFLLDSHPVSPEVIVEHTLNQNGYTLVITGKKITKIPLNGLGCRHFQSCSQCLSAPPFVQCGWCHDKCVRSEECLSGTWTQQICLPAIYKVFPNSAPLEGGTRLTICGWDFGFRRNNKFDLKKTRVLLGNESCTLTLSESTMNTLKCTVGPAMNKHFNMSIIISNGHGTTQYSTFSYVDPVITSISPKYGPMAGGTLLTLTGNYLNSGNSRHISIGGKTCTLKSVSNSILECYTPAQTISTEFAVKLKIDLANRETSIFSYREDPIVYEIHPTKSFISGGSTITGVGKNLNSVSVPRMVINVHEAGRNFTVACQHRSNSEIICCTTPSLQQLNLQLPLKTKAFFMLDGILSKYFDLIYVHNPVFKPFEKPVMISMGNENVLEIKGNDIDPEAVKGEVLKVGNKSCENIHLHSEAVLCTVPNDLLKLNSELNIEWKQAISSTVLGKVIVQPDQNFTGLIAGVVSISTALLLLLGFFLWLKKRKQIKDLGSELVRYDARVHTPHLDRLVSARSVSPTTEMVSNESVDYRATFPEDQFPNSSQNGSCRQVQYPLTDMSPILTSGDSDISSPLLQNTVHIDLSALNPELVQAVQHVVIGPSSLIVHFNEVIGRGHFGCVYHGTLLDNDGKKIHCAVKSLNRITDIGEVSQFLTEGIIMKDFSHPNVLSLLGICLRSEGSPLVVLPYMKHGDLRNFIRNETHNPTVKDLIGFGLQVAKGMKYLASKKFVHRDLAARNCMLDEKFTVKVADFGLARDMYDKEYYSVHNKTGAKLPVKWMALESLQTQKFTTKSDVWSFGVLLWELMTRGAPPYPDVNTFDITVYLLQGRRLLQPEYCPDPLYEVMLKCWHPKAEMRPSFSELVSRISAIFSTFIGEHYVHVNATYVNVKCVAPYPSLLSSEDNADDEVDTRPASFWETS
Specifically, the compound was prepared to a concentration of 1 mM with 100% DMSO and was diluted 10 times in a stepwise manner through 3-fold dilution. 2 ul of the compound diluted in a stepwise manner was added to a 96-well-plate containing 48 ul of a 1× kinase reaction buffer (50 mM HEPES (pH 7.4), 0.05% BSA, 0.005% Tween-20, 1 mM DTT, 0.5 mM MnCl2, 20 mM MgCl2).
The cMET protein was diluted to a concentration of 263 nM with a cMET storage buffer (50 mM Tris-HCl (pH 7.5), 150 mM NaCl, 0.05% Brij35, 1 mM DTT, 10% Glycerol), and then diluted again to a concentration of 2 nM with a 1× kinase reaction buffer. As a substrate cocktail, a MET-specific substrate mixture (5 uM TK peptide, […]) at a concentration 2 times the final reaction concentration.
(§1) Thereafter, a 384-well-plate was prepared, and 2.5 μl of each of the diluted compounds of Examples was added to a corresponding well of experimental group wells, and 2.5 μl of a 4% DMSO solution was dispensed into high control wells and low control wells.
(§2) Thereafter, 2.5 μL of 2 nM cMET was dispensed into the high control wells and the experimental group wells, and 2.5 μL of a 1× kinase reaction buffer was added to the low control wells, and the RON and the reaction buffer were centrifuged at room temperature for 40 seconds at 1000 RPM, and then incubated at room temperature for 20 to 30 minutes. Then, 5 uL of a substrate cocktail (2×) was dispensed into all wells, centrifuged at room temperature for 40 seconds at 1000 RPM, and then incubated at room temperature for 60 minutes. Thereafter, 5 uL of 90 mM EDTA was added to all wells to terminate the reaction, and then incubated again at room temperature for 5 minutes. Thereafter, 5 uL of a 4× phosphotyrosine antibody (Perkin Elmer) containing europium was added to all wells, and then incubated at room temperature for 60 minutes. After the incubation, the 384-well-plate was read with a Vison plate reader. At this time, the excitation wavelength was 340 nm, and the emission wavelength was 620 nm and 665 nm. The 1050 value of the compound of each Example was derived using the GraphPd Prism7 program.
(In general: In TR-FRET formats the signal depends on donor and acceptor labels being close together.)

A further assay deals with RON (Homo sapiens, UniProt Q04912). Description: Evaluation of inhibitory activity against RON (TR-FRET). The format is biochemical. Conditions: TR-FRET kinase assay, RON protein. The protocol: In order to measure the inhibitory activity of each of the compounds of Examples against RON, the IC50 of each of the compounds was measured using a Time-Resolved Fluorescence Energy Transfer Chemistry (TR-FRET).
Chain of RON (Q04912 25-1400, species assumed): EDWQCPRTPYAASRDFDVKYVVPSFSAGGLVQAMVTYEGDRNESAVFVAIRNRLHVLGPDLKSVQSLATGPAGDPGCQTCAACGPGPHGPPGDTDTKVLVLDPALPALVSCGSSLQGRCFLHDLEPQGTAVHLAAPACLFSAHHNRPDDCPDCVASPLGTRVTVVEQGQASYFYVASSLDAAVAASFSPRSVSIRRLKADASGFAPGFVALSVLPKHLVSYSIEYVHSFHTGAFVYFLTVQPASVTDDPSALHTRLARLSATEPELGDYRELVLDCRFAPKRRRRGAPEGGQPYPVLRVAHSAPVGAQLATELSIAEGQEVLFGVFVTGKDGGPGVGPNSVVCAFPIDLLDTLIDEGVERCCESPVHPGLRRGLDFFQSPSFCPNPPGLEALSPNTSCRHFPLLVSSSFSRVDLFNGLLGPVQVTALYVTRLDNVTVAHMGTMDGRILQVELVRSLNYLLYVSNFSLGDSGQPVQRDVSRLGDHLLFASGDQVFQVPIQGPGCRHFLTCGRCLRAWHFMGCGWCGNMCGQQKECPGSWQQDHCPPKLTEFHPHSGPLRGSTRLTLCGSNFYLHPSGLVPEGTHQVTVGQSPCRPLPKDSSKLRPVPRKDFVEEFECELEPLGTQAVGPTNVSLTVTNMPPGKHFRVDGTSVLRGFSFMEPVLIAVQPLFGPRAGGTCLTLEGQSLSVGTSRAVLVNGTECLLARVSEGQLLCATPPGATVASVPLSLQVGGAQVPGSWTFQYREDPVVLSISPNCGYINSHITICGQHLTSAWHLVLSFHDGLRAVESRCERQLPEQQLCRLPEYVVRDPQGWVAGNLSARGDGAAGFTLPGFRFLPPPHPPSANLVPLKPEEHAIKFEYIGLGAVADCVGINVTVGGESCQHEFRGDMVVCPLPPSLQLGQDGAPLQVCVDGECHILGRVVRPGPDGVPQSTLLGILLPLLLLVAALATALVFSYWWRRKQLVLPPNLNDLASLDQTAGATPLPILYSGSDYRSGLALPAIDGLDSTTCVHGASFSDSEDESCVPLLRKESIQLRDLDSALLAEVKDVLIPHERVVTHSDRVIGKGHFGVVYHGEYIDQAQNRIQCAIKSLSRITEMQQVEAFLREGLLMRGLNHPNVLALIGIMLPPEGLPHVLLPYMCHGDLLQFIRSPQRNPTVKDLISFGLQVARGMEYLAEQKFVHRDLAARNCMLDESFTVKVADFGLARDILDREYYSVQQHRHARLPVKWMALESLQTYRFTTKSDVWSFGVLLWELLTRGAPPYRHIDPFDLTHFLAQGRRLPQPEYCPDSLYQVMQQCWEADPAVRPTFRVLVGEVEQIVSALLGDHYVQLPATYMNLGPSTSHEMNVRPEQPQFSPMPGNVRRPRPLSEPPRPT
Specifically, the compound was prepared to a concentration of 1 mM with 100% DMSO and was diluted 10 times in a stepwise manner through 3-fold dilution. 2 ul of the compound diluted in a stepwise manner was added to a 96-well-plate containing 48 ul of a 1×kinase reaction buffer (50 mM HEPES (pH 7.4), 0.01% Tween-20, 5 mM DTT, 0.5 mM Na3VO4, 2 mM EGTA, 10 mM MgCl2).
The RON protein was diluted to a concentration of 49.3 nM with an RON storage buffer (50 mM Tris-HCl (pH 7.5), 150 mM NaCl, 0.5 mM EDTA, 0.02% Triton X-100), and then diluted again to a concentration of 0.4 nM with a 1×kinase reaction buffer. As a substrate cocktail, a RON-specific substrate mixture (40 uM ULight-labeled Poly GT, 100 nM ATP) at a concentration 2 times the final reaction concentration.
as §1
as §2, with “of 0.4” for “of 2”, “nM RON” for “nM cMET”, “of 30” for “of 90”, “The IC50” for “The 1050”

For orientation: IC50 means the concentration at which inhibition is half-maximal. For `CC(C)n1c(=O)[nH]c2nccc(Oc3ccc(NC(=O)c4cnn(-c5cc(C(F)(F)F)ccn5)c4C(F)(F)F)cc3F)c21` [Example 17, N-(3-fluoro-4-((1-isopropyl-2-oxo-2,3-dihydro-1H-imidazo[4,5-b]pyridine-7-yl)oxy)phenyl)-5-(trifluoromethyl)-1-(4-(trifluoromethyl)pyridine-2-yl)-1H-pyrazole-4-carboxamide], the IC50 on cMET is greater than 5 µM; against RON, 0.05 to 0.5 µM.
Taken in the same sequence, the figures for `Cc1cccc(-n2ncc(C(=O)Nc3ccc(Oc4ccnc5[nH]c(=O)n(C(C)C)c45)c(F)c3)c2C(F)(F)F)n1` [Example 18, N-(3-fluoro-4-((1-isopropyl-2-oxo-2,3-dihydro-1H-imidazo[4,5-b]pyridine-7-yl)oxy)phenyl)-1-(6-methylpyridine-2-yl)-5-(trifluoromethyl)-1H-pyrazole-4-carboxamide] were 0.5 to 5 µM and less than 0.05 µM.
The corresponding values for `CC(C)n1c(=O)[nH]c2nccc(Oc3ccc(NC(=O)c4cnn(-c5ncccc5Br)c4C(F)(F)F)cc3F)c21` [Example 19, 1-(3-bromopyridine-2-yl)-N-(3-fluoro-4-((1-isopropyl-2-oxo-2,3-dihydro-1H-imidazo[4,5-b]pyridine-7-yl)oxy)phenyl)-5-(trifluoromethyl)-1H-pyrazole-4-carboxamide] are 0.5 to 5 µM and less than 0.05 µM.
Taken in the same sequence, the figures for `CC(C)n1c(=O)[nH]c2nccc(Oc3ccc(NC(=O)c4cnn(-c5nccc6ccccc56)c4C(F)(F)F)cc3F)c21` [Example 20, N-(3-fluoro-4-((1-isopropyl-2-oxo-2,3-dihydro-1H-imidazo[4,5-b]pyridine-7-yl)oxy)phenyl)-1-(isoquinoline-1-yl)-5-(trifluoromethyl)-1H-pyrazole-4-carboxamide] were 0.5 to 5 µM and less than 0.05 µM.
Consider `CC(C)n1c(=O)[nH]c2nccc(Oc3ccc(NC(=O)c4cnn(-c5ccc(F)cn5)c4C(F)(F)F)cc3F)c21` [Example 21, N-(3-fluoro-4-((1-isopropyl-2-oxo-2,3-dihydro-1H-imidazo[4,5-b]pyridine-7-yl)oxy)phenyl)-1-(5-fluoropyridine-2-yl)-5-(trifluoromethyl)-1H-pyrazole-4-carboxamide], for which the IC50 is greater than 5 µM on cMET and less than 0.05 µM against RON.
`CC(C)n1c(=O)[nH]c2nccc(Oc3ccc(NC(=O)c4cnn(-c5cccc(C(F)(F)F)n5)c4C(F)(F)F)cc3F)c21` [Example 22, N-(3-fluoro-4-((1-isopropyl-2-oxo-2,3-dihydro-1H-imidazo[4,5-b]pyridine-7-yl)oxy)phenyl)-5-(trifluoromethyl)-1-(6-(trifluoromethyl)pyridine-2-yl)-1H-pyrazole-4-carboxamide]: the IC50 at cMET was greater than 5 µM; on RON it was 0.05 to 0.5 µM.
The corresponding values for `CC(C)n1c(=O)[nH]c2nccc(Oc3ccc(NC(=O)c4cnn(-c5cccnc5)c4C(F)(F)F)cc3F)c21` [Example 23, N-(3-fluoro-4-((1-isopropyl-2-oxo-2,3-dihydro-1H-imidazo[4,5-b]pyridine-7-yl)oxy)phenyl)-1-(pyridine-3-yl)-5-(trifluoromethyl)-1H-pyrazole-4-carboxamide] are 0.5 to 5 µM and less than 0.05 µM.
As for `CC(C)n1c(=O)[nH]c2nccc(Oc3ccc(NC(=O)c4cnn(-c5ccncc5)c4C(F)(F)F)cc3F)c21` [Example 24, N-(3-fluoro-4-((1-isopropyl-2-oxo-2,3-dihydro-1H-imidazo[4,5-b]pyridine-7-yl)oxy)phenyl)-1-(pyridine-4-yl)-5-(trifluoromethyl)-1H-pyrazole-4-carboxamide], the IC50 at cMET is 0.5 to 5 µM; at RON it was less than 0.05 µM.
Consider `CC(C)n1c(=O)[nH]c2nccc(Oc3ccc(NC(=O)c4cnn(-c5ncccn5)c4C(F)(F)F)cc3F)c21` [Example 25, N-(3-fluoro-4-((1-isopropyl-2-oxo-2,3-dihydro-1H-imidazo[4,5-b]pyridine-7-yl)oxy)phenyl)-1-(pyrimidine-2-yl)-5-(trifluoromethyl)-1H-pyrazole-4-carboxamide], for which the IC50 against cMET is 0.5 to 5 µM; on RON, less than 0.05 µM.
On to `Cc1ccnc(-n2ncc(C(=O)Nc3ccc(Oc4ccnc5[nH]c(=O)n(C(C)C)c45)c(F)c3)c2C(F)(F)F)n1` [Example 26, N-(3-fluoro-4-((1-isopropyl-2-oxo-2,3-dihydro-1H-imidazo[4,5-b]pyridine-7-yl)oxy)phenyl)-1-(4-methylpyrimidine-2-yl)-5-(trifluoromethyl)-1H-pyrazole-4-carboxamide], for which the IC50 is 0.5 to 5 µM against cMET and less than 0.05 µM against RON.
Taken in the same sequence, the figures for `CC(C)n1c(=O)[nH]c2nccc(Oc3ccc(NC(=O)c4cnn(-c5ccncn5)c4C(F)(F)F)cc3F)c21` [Example 27, N-(3-fluoro-4-((1-isopropyl-2-oxo-2,3-dihydro-1H-imidazo[4,5-b]pyridine-7-yl)oxy)phenyl)-1-(pyrimidine-4-yl)-5-(trifluoromethyl)-1H-pyrazole-4-carboxamide] were 0.5 to 5 µM and less than 0.05 µM.
The corresponding values for `COc1cccnc1-n1ncc(C(=O)Nc2ccc(Oc3ccnc4[nH]c(=O)n(C(C)C)c34)c(F)c2)c1C(F)(F)F` [Example 28, N-(3-fluoro-4-((1-isopropyl-2-oxo-2,3-dihydro-1H-imidazo[4,5-b]pyridine-7-yl)oxy)phenyl)-1-(3-methoxypyridine-2-yl)-5-(trifluoromethyl)-1H-pyrazole-4-carboxamide] are 0.5 to 5 µM and less than 0.05 µM.
As for `CCc1cccnc1-n1ncc(C(=O)Nc2ccc(Oc3ccnc4[nH]c(=O)n(C(C)C)c34)c(F)c2)c1C(F)(F)F` [Example 29, 1-(3-ethylpyridine-2-yl)-N-(3-fluoro-4-((1-isopropyl-2-oxo-2,3-dihydro-1H-imidazo[4,5-b]pyridine-7-yl)oxy)phenyl)-5-(trifluoromethyl)-1H-pyrazole-4-carboxamide], the IC50 is 0.5 to 5 µM against cMET and less than 0.05 µM on RON.
Taken in the same sequence, the figures for `CCc1ccnc(-n2ncc(C(=O)Nc3ccc(Oc4ccnc5[nH]c(=O)n(C(C)C)c45)c(F)c3)c2C(F)(F)F)c1` [Example 30, 1-(4-ethylpyridine-2-yl)-N-(3-fluoro-4-((1-isopropyl-2-oxo-2,3-dihydro-1H-imidazo[4,5-b]pyridine-7-yl)oxy)phenyl)-5-(trifluoromethyl)-1H-pyrazole-4-carboxamide] were 0.5 to 5 µM and 0.05 to 0.5 µM.
As to `CC(C)n1c(=O)[nH]c2nccc(Oc3ccc(NC(=O)c4cnn(-c5cc(C6CC6)ccn5)c4C(F)(F)F)cc3F)c21` [Example 31, 1-(4-cyclopropylpyridine-2-yl)-N-(3-fluoro-4-((1-isopropyl-2-oxo-2,3-dihydro-1H-imidazo[4,5-b]pyridine-7-yl)oxy)phenyl)-5-(trifluoromethyl)-1H-pyrazole-4-carboxamide], the IC50 against cMET was 0.5 to 5 µM; against RON, 0.05 to 0.5 µM.
